# Results taken from US8959984B2, “Proteome-wide quantification of small molecule binding to cellular target proteins” (priority 2007, dated 2015).
# Where two headings read alike, the source gives them in different places.
# Tests used:
# [1] = target: T1, MAP3K5 (Homo sapiens, UniProt Q99683); experiment: binding to immobilized V16742 (IVA1/IVA2, HeLa lysate, MS)
# T1 construct: endogenous in cells; host or cells: HeLa S3
# T1 sequence (Q99683 1-1374): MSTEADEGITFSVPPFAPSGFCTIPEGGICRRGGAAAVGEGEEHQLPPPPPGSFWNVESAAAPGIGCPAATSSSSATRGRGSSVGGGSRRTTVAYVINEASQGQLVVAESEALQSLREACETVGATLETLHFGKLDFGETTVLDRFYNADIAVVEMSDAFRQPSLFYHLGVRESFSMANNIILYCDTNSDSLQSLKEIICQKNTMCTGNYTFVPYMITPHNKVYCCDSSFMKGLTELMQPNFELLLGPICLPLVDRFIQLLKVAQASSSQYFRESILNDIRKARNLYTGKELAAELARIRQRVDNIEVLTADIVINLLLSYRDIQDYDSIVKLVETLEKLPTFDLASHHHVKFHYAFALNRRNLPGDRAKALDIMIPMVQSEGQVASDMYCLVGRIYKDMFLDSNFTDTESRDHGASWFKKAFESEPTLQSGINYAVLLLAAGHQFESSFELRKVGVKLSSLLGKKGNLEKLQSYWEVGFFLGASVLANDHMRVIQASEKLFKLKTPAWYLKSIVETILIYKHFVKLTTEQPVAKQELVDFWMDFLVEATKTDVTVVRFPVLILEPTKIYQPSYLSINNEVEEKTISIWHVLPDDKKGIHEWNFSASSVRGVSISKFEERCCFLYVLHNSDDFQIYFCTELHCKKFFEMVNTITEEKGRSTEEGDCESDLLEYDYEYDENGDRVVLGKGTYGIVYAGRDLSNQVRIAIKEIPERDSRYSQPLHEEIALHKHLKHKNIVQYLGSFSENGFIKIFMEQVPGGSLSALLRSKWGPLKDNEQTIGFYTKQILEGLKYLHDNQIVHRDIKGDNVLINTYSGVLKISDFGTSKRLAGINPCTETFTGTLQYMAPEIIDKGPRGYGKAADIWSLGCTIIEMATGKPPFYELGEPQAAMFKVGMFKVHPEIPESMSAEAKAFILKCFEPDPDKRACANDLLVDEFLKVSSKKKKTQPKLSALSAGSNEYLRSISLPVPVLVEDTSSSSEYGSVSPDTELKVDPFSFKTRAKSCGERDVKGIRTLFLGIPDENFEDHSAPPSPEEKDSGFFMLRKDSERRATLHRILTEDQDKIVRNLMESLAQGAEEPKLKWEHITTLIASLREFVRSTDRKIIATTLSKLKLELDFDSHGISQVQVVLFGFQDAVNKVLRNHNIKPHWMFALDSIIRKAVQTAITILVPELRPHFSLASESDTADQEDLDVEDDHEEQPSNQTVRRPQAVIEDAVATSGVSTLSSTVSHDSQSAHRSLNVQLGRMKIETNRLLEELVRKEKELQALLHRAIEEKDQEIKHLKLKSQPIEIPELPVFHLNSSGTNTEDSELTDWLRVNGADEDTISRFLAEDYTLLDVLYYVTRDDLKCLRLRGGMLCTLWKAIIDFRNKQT
# [2] = target: T2, CDK7 (Homo sapiens, UniProt P50613); experiment: as above
# T2 construct: endogenous in cells; host or cells: HeLa S3
# [3] = target: T3, NT5DC1 (IPI00177965) (Homo sapiens, UniProt Q5TFE4); experiment: binding to VI16742 beads (HeLa lysate, SILAC MS)
# T3 construct: endogenous in cells; host or cells: HeLa S3 cell lysate
# T3 sequence (Q5TFE4 1-455): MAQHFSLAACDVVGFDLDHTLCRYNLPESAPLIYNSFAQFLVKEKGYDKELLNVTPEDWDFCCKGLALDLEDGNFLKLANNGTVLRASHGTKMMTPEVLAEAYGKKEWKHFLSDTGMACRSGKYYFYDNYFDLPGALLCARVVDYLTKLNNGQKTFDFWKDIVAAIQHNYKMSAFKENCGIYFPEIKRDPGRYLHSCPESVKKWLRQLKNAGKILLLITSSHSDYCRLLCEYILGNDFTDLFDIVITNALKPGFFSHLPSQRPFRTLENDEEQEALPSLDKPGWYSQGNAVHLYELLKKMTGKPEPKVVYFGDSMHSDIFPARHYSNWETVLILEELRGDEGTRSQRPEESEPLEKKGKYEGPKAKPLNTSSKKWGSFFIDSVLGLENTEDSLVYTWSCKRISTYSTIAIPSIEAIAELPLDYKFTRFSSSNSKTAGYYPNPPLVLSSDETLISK
# [4] = test system: PITSLRE; experiment: binding to immobilized V16742 (IVA1/IVA2, HeLa lysate, MS); set-up: species or system human
# [5] = test system: PARVA (IPI00018963); experiment: binding to VI16742 beads (HeLa lysate, SILAC MS); set-up: species or system human
# Excerpt: (§1) In an alternative implementation of the chemical proteomic approach according to the invention, the broadly-selective pyrido[2,3-d]pyrimidine-based kinase inhibitor VI16742 has been used for affinity capture (FIG. 10a). […] As shown by gene ontology analysis, the corresponding molecular functions were highly over-represented in proteins specifically retained by the inhibitor resin (FIG. 10b).
# [6] = test system: CCNK (IPI00783214); experiment: binding to VI16742 beads (HeLa lysate, SILAC MS); set-up: species or system human
# Excerpt: as §1
# [7] = target: BRD3 (Homo sapiens, UniProt Q15059); experiment: binding to immobilized V16742 (IVA1/IVA2, HeLa lysate, MS)
# [8] = average of two experiments, read-out: Kd Avg
# [9] = control beads vs first incubation
# Chain of BRD3 (Q15059 whole entry): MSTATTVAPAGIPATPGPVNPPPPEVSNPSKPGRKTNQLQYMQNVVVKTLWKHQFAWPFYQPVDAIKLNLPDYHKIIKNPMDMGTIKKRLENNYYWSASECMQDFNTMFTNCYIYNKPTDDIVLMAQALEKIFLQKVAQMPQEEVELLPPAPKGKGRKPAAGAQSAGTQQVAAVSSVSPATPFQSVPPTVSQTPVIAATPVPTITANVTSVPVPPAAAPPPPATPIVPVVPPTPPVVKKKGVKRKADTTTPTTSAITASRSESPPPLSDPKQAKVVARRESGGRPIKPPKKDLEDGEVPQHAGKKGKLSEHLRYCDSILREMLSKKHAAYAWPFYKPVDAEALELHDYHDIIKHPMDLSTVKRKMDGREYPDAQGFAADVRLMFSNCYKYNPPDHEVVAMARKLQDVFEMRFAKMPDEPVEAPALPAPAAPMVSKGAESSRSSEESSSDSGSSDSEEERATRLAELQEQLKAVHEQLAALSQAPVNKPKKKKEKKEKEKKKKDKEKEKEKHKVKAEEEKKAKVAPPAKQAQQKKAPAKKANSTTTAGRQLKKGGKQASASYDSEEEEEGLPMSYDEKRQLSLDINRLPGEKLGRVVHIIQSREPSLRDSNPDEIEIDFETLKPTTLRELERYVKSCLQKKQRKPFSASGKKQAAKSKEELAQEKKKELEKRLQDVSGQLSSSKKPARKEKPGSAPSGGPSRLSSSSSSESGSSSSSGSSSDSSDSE
# T2 sequence (P50613 whole entry): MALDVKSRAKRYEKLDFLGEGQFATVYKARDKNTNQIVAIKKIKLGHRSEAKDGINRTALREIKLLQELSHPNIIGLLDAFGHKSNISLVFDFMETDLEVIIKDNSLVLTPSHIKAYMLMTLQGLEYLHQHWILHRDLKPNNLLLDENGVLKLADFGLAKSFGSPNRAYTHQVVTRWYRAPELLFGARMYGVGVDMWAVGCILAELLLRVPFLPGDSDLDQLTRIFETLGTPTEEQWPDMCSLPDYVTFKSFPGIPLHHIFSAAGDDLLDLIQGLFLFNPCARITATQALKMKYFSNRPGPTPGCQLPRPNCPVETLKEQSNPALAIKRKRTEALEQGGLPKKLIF
compound,measurement,setting,value
CC(C)n1c(=O)ccc2cnc(Nc3ccc(OCCN)cc3)nc21 [V16742],Percent bound at various 16742 conc,"[1]; Experiment 1, 1.87 μM 16742",7.42%
same,Percent bound at various 16742 conc,"[1]; Experiment 1, 8.74 μM 16742",10.05%
same,Percent bound at various 16742 conc,"[1]; Experiment 1, 52 μM 16742",56.90%
same,Kd,"[1]; Experiment 1, read-out: Kd",44.5 µM
same,Percent bound at various 16742 conc,"[1]; Experiment 2, 1.87 μM 16742",1.27%
same,Percent bound at various 16742 conc,"[1]; Experiment 2, 8.74 μM 16742",1.00%
same,Percent bound at various 16742 conc,"[1]; Experiment 2, 52 μM 16742",17.64%
same,Kd,"[1]; Experiment 2, read-out: Kd",252 µM
same,Kd,[1]; [8],148 µM
same,Percent bound at various 16742 conc,"[2]; Experiment 1, 1.87 μM 16742",5.76%
same,Percent bound at various 16742 conc,"[2]; Experiment 1, 8.74 μM 16742",22.04%
same,Percent bound at various 16742 conc,"[2]; Experiment 1, 52 μM 16742",53.96%
same,Kd,"[2]; Experiment 1, read-out: Kd",39.8 µM
same,Percent bound at various 16742 conc,"[2]; Experiment 2, 1.87 μM 16742",2.34%
same,Percent bound at various 16742 conc,"[2]; Experiment 2, 8.74 μM 16742",13.18%
same,Percent bound at various 16742 conc,"[2]; Experiment 2, 52 μM 16742",45.57%
same,Kd,"[2]; Experiment 2, read-out: Kd",61.5 µM
same,Kd,[2]; [8],50.7 µM
same,rAVERAGE (CTRL/1 INC),[3]; [9],0.07
same,Ki,[3]; immobilized VI16742,94.8 µM
same,rAVERAGE (2 INC/1 INC),[3]; second vs first incubation,0.65
same,Percent bound at various 16742 conc,"[4]; Experiment 1, 1.87 μM 16742",1.13%
same,Percent bound at various 16742 conc,"[4]; Experiment 1, 8.74 μM 16742",12.03%
same,Percent bound at various 16742 conc,"[4]; Experiment 1, 52 μM 16742",49.06%
same,Kd,"[4]; Experiment 1, read-out: Kd",56.1 µM
same,Percent bound at various 16742 conc,"[4]; Experiment 2, 1.87 μM 16742",2.00%
same,Percent bound at various 16742 conc,"[4]; Experiment 2, 8.74 μM 16742",4.78%
same,Percent bound at various 16742 conc,"[4]; Experiment 2, 52 μM 16742",46.71%
same,Kd,"[4]; Experiment 2, read-out: Kd",66.7 µM
same,Kd,[4]; [8],61.4 µM
same,rAVERAGE (CTRL/1 INC),[5]; [9],0.06
same,Ki,[5]; immobilized VI16742,155 µM
same,rAVERAGE (2 INC/1 INC),[5]; second vs first incubation,0.75
same,r (3 MG/1 MG LYSATE),[6]; 3 mg vs 1 mg lysate,3.84
same,r (5 h/2.5 h INC. TIME),[6]; 5 h vs 2.5 h incubation time,1.27
same,rAVERAGE (CTRL/1 INC),[6]; [9],0.12
same,Ki,[6]; immobilized VI16742,120 µM
same,rAVERAGE (2 INC/1 INC),[6]; second vs first incubation,0.70
CC(C)n1c(=O)ccc2cnc(Nc3ccc(OCCN)cc3)nc21 [compound 16742],Percent bound at 1.87 μM 16742 conc,[7]; EXPERIMENT 1,0.00%
same,Percent bound at 8.74 μM 16742 conc,[7]; EXPERIMENT 1,0.00%
same,Percent bound at 52 μM 16742 conc,[7]; EXPERIMENT 1,71.55%
same,Kd,"[7]; EXPERIMENT 1, read-out: Kd",37 µM
same,Percent bound at 1.87 μM 16742 conc,[7]; EXPERIMENT 2,8.24%
same,Percent bound at 8.74 μM 16742 conc,[7]; EXPERIMENT 2,11.86%
same,Percent bound at 52 μM 16742 conc,[7]; EXPERIMENT 2,65.82%
same,Kd,"[7]; EXPERIMENT 2, read-out: Kd",33.9 µM
same,Kd,[7]; read-out: Kd Avg,35.4 µM
